PMC12408352, “Complete biosynthesis of salicylic acid from phenylalanine in plants” (Nature, 2025)

Legend:
Type in all cases: biochemical
AIM1 (OsCHD), MBP-AIM1 = molecular target: T1, AIM1 (OsCHD), MBP-AIM1 (Oryza sativa, UniProt Q8W1L6); assay: product detection by LC-UV-MS; settings: 0.5 mM CA-CoA, 1 mM NAD+, 100 mM Tris-HCl pH 7.5, MgCl2, KCl, pyruvate / lactate dehydrogenase, 30 °C
T1 construct: gene MFP; CDS from rice cDNA in pMAL-c2X, MBP fusion, E. coli BL21 (DE3), amylose resin
T1 sequence (Q8W1L6 1-726): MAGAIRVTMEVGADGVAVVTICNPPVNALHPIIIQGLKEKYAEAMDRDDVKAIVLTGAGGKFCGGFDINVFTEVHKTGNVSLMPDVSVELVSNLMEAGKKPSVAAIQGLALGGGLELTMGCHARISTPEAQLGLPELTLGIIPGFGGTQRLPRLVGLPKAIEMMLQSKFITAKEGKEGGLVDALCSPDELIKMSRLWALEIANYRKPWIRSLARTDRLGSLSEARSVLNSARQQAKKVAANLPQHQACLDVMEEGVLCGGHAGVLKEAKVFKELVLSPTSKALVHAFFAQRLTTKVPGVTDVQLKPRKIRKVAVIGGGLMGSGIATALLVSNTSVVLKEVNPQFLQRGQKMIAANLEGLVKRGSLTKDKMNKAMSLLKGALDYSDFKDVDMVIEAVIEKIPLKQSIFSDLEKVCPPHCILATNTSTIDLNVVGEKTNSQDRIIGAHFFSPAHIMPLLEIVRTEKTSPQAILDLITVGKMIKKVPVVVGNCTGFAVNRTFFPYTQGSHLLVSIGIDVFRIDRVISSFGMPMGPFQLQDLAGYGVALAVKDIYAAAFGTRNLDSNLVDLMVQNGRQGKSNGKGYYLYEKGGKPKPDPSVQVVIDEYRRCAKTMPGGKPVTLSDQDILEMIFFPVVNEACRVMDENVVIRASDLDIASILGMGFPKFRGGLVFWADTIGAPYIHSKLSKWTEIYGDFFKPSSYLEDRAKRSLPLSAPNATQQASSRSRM

PhCHD, MBP-PhCHD = molecular target: T2, PhCHD, MBP-PhCHD (Petunia x hybrida, UniProt J9YIZ4); assay: product detection by LC-UV-MS; settings: positive control; AIM1 assay conditions, 0.5 mM CA-CoA, 1 mM NAD+, Tris-HCl pH 7.5, 30 °C
T2 construct: gene CHD; synthesized gene in pMAL-c5X, MBP fusion, E. coli BL21 (DE3), amylose resin
T2 sequence (J9YIZ4 1-724): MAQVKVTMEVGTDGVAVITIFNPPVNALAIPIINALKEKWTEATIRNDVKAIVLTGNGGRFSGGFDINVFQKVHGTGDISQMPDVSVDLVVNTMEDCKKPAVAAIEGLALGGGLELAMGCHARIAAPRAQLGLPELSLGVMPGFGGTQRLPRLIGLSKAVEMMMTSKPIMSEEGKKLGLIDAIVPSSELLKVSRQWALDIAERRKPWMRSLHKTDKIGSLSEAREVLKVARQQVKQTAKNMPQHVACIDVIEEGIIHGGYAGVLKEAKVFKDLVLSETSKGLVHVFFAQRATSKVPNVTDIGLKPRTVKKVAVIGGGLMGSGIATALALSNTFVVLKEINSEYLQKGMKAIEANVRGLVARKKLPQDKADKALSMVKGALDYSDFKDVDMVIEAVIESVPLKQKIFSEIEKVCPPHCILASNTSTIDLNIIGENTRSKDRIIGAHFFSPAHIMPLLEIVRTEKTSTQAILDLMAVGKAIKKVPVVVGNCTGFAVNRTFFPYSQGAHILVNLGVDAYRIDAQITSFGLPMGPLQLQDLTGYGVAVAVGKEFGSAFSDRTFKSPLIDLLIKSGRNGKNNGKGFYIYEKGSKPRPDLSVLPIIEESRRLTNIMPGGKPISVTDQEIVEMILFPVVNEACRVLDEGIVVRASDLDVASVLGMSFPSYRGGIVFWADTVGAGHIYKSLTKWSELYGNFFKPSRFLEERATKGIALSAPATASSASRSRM

OSD3, Flag-OSD3 = molecular target: T3, OSD3, Flag-OSD3 (Oryza sativa, UniProt Q69P73); assay: product detection by LC-UV-MS, yeast microsomes; settings: 50 µM BB, 5 mM NADPH, 80 mM sodium phosphate pH 7.0, 5 mM DTT, 30 °C
T3 construct: gene Os09g0441400; Flag fusion in pESC-URA, microsomes of yeast strain WAT11
T3 sequence (Q69P73 1-514): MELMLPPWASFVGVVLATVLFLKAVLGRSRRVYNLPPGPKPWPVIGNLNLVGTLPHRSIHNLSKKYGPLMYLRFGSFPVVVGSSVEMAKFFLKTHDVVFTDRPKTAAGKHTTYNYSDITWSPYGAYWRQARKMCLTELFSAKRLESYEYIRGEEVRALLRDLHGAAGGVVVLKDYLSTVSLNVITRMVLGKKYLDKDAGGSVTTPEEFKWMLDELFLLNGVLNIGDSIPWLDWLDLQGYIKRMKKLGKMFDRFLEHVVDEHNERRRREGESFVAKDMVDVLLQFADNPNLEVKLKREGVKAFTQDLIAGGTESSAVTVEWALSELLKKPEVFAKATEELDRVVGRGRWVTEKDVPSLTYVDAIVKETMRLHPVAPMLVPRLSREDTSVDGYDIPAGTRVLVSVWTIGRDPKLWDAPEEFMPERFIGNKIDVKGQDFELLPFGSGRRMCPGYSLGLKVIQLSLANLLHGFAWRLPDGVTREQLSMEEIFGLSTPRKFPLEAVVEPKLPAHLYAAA

Compound	product detection by LC-UV-MS (AIM1 (OsCHD), MBP-AIM1)	product detection by LC-UV-MS (PhCHD, MBP-PhCHD)	product detection by LC-UV-MS, yeast microsomes (OSD3, Flag-OSD3)
CC(C)(COP(=O)(O)OP(=O)(O)OC[C@H]1O[C@@H](n2cnc3c(N)ncnc32)[C@H](O)[C@@H]1OP(=O)(O)O)[C@@H](O)C(=O)NCCC(=O)NCCSC(=O)CC(=O)c1ccccc1 [benzoylacetyl-CoA]	confirming the product of AIM1 as BAc-CoA	used it to produce a BAc-CoA standard	–
O=C(OCc1ccccc1)c1ccccc1 [benzyl benzoate]	–	–	OSD3 acts as a benzyl benzoate 2-hydroxylase (BB2H) to catalyse the hydroxylation of BB
O=C(OCc1ccccc1)c1ccccc1O [benzyl salicylate]	–	–	to catalyse the hydroxylation of BB, yielding BS
CC(C)(COP(=O)(O)OP(=O)(O)OC[C@H]1O[C@@H](n2cnc3c(N)ncnc32)[C@H](O)[C@@H]1OP(=O)(O)O)[C@@H](O)C(=O)NCCC(=O)NCCSC(=O)/C=C/c1ccccc1 [cinnamoyl-CoA]	AIM1 functions as a CA-CoA hydratase-dehydrogenase for converting CA-CoA to BAc-CoA	The MBP–PhCHD enzyme was used as a positive control	–
